According to ChEMBL document CHEMBL4130345, “Discovery of a series of dihydroquinoxalin-2(1H)-ones as selective BET inhibitors from a dual PLK1-BRD4 inhibitor” (Eur J Med Chem, 2017):
Active and inactive are the calls of the source. No cut-off for these calls is given here.

Tests used:
[1] = molecular target: Bromodomain adjacent to zinc finger domain protein 2B (Homo sapiens) (UniProt Q9UIF8); assay: Inhibition of human partial length BAZ2B (S2054 to S2168 residues) expressed in Escherichia coli BL21 assessed as residual activity at 1 uM after 1 hr by qPCR method relative to control
[2] = molecular target: Bromodomain-containing protein 7 (Homo sapiens) (UniProt Q9NPI1); assay: Inhibition of human partial length BRD7 (L125 to R254 residues) expressed in mammalian expression system assessed as residual activity at 1 uM after 1 hr by qPCR method relative to control
[3] = Cmax in ICR (CD-1) mouse at 10 mg/kg, po; assay type: ADME, organism-based; design: dose 10 mg/kg, route oral; conditions: in vivo
[4] = molecular target: SWI/SNF-related matrix-associated actin-dependent regulator of chromatin subfamily A member 4 (Homo sapiens) (UniProt P51532); assay: Inhibition of human partial length SMARCA4 (A1448 to S1575 residues) expressed in Escherichia coli BL21 assessed as residual activity at 1 uM after 1 hr by qPCR method relative to control
[5] = molecular target: E3 ubiquitin-protein ligase TRIM33 (Homo sapiens) (UniProt Q9UPN9); assay: Inhibition of human partial length TRIM33 (D882 to A1087 residues) expressed in Escherichia coli BL21 assessed as residual activity at 1 uM after 1 hr by qPCR method relative to control
[6] = molecular target: Transcription initiation factor TFIID subunit 1 (Homo sapiens) (UniProt P21675); assay: Inhibition of human partial length TAF1 bromodomain 2 (D1521 to D1656 residues) expressed in Escherichia coli BL21 assessed as residual activity at 1 uM after 1 hr by qPCR method relative to control
[7] = AUC (0 to infinity) in ICR (CD-1) mouse at 10 mg/kg, po; assay type: ADME, organism-based; design: dose 10 mg/kg, time infinity, route oral; conditions: in vivo
[8] = molecular target: T1, Bromodomain-containing protein 4 (Homo sapiens, UniProt O60885); assay: Inhibition of JQ1-FITC binding to His6-tagged BRD4-BD1 (unknown origin) expressed in Escherichia coli BL21 (DE3)-codon plus-RIL cells incubated in dark for 4 hrs by fluorescence anisotropy assay
[9] = Half life in ICR (CD-1) mouse at 10 mg/kg, po; assay type: ADME, organism-based; conditions: in vivo
[10] = molecular target: Histone acetyltransferase p300 (Homo sapiens) (UniProt Q09472); assay: Inhibition of human partial length EP300 (A1040 to G1161 residues) expressed in Escherichia coli BL21 assessed as residual activity at 1 uM after 1 hr by qPCR method relative to control
[11] = molecular target: ATPase family AAA domain-containing protein 2 (Homo sapiens) (UniProt Q6PL18); assay: Inhibition of human partial length ATAD2A (Q981 to R1108 residues) expressed in Escherichia coli BL21 assessed as residual activity at 1 uM after 1 hr by qPCR method relative to control
[12] = molecular target: Bromodomain-containing protein 1 (Homo sapiens) (UniProt O95696); assay: Inhibition of human partial length BRD1 (E556 to A688 residues) expressed in Escherichia coli BL21 assessed as residual activity at 1 uM after 1 hr by qPCR method relative to control
[13] = Plasma concentration in ICR (CD-1) mouse at 10 mg/kg, po after 24 hrs; assay type: ADME, organism-based
[14] = molecular target: T1, Bromodomain-containing protein 4; assay: Inhibition of BRD4 in human TY82 cells assessed as downregulation of c-Myc protein expression at 0.2 to 1 uM after 24 hrs by Western blot method; assay type: cell-based
[15] = molecular target: Transcription initiation factor TFIID subunit 1-like (Homo sapiens) (UniProt Q8IZX4); assay: Inhibition of human partial length TAF1L bromodomain 2 (Q1523 to D1654 residues) expressed in Escherichia coli BL21 assessed as residual activity at 1 uM after 1 hr by qPCR method relative to control
[16] = molecular target: Peregrin (Homo sapiens) (UniProt P55201); assay: Inhibition of human partial length BRPF1 (E627 to G740 residues) expressed in Escherichia coli BL21 assessed as residual activity at 1 uM after 1 hr by qPCR method relative to control
[17] = molecular target: T1, Bromodomain-containing protein 4; assay: Inhibition of human partial length BRD4 bromodomain 2 long isoform (K333 to E460 residues) expressed in Escherichia coli BL21 assessed as residual activity at 1 uM after 1 hr by qPCR method relative to control
[18] = molecular target: Bromodomain adjacent to zinc finger domain protein 2A (Homo sapiens) (UniProt Q9UIF9); assay: Inhibition of human partial length BAZ2A (M1792 to L1905 residues) expressed in Escherichia coli BL21 assessed as residual activity at 1 uM after 1 hr by qPCR method relative to control
[19] = molecular target: Histone acetyltransferase KAT2B (Homo sapiens) (UniProt Q92831); assay: Inhibition of human partial length PCAF (G715 to D831 residues) expressed in Escherichia coli BL21 assessed as residual activity at 1 uM after 1 hr by qPCR method relative to control
[20] = molecular target: Protein polybromo-1 (Homo sapiens) (UniProt Q86U86); assay: Inhibition of human partial length PBRM1 bromodomain 5 (S645 to D766 residues) expressed in Escherichia coli BL21 assessed as residual activity at 1 uM after 1 hr by qPCR method relative to control
[21] = molecular target: Bromodomain-containing protein 2 (Homo sapiens) (UniProt P25440); assay: Inhibition of human partial length BRD2 bromodomain 1 long isoform (K71 to N194 residues) expressed in Escherichia coli BL21 assessed as residual activity at 1 uM after 1 hr by qPCR method relative to control
[22] = AUC (0 to t) in ICR (CD-1) mouse at 10 mg/kg, po; assay type: ADME, organism-based; conditions: in vivo
[23] = molecular target: SWI/SNF-related matrix-associated actin-dependent regulator of chromatin subfamily A member 2 (Homo sapiens) (UniProt P51531); assay: Inhibition of human partial length SMARCA2 (S1377 to Q1486 residues) expressed in Escherichia coli BL21 assessed as residual activity at 1 uM after 1 hr by qPCR method relative to control
[24] = molecular target: ATPase family AAA domain-containing protein 2B (Homo sapiens) (UniProt Q9ULI0); assay: Inhibition of human partial length ATAD2B (Q955 to R1082 residues) expressed in Escherichia coli BL21 assessed as residual activity at 1 uM after 1 hr by qPCR method relative to control
[25] = molecular target: T1, Bromodomain-containing protein 4; assay: Inhibition of BRD4 in human TY82 cells assessed as downregulation of c-Myc mRNA expression after 24 hrs by RT-qPCR method; assay type: cell-based
[26] = molecular target: Bromodomain-containing protein 3 (Homo sapiens) (UniProt Q15059); assay: Inhibition of human partial length BRD3 bromodomain 1 (P24 to E144 residues) expressed in Escherichia coli BL21 assessed as residual activity at 1 uM after 1 hr by qPCR method relative to control
[27] = molecular target: Transcription intermediary factor 1-alpha (Homo sapiens) (UniProt O15164); assay: Inhibition of human partial length TRIM24 (P790 to P977 residues) expressed in Escherichia coli BL21 assessed as residual activity at 1 uM after 1 hr by qPCR method relative to control
Sequence of Transcription intermediary factor 1-alpha (Homo sapiens) (O15164 whole entry, the tested form may be a part): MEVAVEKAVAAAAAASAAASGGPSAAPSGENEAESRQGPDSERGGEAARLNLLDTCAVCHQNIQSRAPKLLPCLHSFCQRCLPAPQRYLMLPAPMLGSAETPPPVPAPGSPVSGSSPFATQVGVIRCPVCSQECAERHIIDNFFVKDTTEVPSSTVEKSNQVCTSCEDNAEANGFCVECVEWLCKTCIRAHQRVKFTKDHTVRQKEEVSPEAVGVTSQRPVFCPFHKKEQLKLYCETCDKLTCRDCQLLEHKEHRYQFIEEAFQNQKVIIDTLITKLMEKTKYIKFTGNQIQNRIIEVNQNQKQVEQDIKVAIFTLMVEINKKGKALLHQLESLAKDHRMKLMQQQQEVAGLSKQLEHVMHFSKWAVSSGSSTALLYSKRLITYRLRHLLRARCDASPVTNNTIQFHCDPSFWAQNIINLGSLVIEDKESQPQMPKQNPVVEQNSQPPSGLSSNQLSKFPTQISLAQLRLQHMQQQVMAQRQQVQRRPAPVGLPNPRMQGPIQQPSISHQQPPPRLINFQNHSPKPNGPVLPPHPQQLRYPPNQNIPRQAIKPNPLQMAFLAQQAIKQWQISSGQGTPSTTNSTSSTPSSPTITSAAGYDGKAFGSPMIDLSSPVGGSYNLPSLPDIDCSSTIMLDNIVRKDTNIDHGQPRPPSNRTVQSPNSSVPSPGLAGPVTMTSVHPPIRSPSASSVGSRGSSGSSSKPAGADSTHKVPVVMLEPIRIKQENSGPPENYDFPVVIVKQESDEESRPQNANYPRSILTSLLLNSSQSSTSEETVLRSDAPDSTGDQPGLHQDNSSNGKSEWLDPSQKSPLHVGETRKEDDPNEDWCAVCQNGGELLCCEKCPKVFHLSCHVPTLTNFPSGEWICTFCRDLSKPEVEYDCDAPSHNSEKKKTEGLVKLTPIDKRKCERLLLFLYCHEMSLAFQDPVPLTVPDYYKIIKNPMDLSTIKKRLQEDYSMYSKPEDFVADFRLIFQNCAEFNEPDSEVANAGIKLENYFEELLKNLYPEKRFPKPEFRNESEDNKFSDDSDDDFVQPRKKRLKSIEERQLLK

Sequence of Bromodomain adjacent to zinc finger domain protein 2B (Homo sapiens) (Q9UIF8 whole entry, the tested form may be a part): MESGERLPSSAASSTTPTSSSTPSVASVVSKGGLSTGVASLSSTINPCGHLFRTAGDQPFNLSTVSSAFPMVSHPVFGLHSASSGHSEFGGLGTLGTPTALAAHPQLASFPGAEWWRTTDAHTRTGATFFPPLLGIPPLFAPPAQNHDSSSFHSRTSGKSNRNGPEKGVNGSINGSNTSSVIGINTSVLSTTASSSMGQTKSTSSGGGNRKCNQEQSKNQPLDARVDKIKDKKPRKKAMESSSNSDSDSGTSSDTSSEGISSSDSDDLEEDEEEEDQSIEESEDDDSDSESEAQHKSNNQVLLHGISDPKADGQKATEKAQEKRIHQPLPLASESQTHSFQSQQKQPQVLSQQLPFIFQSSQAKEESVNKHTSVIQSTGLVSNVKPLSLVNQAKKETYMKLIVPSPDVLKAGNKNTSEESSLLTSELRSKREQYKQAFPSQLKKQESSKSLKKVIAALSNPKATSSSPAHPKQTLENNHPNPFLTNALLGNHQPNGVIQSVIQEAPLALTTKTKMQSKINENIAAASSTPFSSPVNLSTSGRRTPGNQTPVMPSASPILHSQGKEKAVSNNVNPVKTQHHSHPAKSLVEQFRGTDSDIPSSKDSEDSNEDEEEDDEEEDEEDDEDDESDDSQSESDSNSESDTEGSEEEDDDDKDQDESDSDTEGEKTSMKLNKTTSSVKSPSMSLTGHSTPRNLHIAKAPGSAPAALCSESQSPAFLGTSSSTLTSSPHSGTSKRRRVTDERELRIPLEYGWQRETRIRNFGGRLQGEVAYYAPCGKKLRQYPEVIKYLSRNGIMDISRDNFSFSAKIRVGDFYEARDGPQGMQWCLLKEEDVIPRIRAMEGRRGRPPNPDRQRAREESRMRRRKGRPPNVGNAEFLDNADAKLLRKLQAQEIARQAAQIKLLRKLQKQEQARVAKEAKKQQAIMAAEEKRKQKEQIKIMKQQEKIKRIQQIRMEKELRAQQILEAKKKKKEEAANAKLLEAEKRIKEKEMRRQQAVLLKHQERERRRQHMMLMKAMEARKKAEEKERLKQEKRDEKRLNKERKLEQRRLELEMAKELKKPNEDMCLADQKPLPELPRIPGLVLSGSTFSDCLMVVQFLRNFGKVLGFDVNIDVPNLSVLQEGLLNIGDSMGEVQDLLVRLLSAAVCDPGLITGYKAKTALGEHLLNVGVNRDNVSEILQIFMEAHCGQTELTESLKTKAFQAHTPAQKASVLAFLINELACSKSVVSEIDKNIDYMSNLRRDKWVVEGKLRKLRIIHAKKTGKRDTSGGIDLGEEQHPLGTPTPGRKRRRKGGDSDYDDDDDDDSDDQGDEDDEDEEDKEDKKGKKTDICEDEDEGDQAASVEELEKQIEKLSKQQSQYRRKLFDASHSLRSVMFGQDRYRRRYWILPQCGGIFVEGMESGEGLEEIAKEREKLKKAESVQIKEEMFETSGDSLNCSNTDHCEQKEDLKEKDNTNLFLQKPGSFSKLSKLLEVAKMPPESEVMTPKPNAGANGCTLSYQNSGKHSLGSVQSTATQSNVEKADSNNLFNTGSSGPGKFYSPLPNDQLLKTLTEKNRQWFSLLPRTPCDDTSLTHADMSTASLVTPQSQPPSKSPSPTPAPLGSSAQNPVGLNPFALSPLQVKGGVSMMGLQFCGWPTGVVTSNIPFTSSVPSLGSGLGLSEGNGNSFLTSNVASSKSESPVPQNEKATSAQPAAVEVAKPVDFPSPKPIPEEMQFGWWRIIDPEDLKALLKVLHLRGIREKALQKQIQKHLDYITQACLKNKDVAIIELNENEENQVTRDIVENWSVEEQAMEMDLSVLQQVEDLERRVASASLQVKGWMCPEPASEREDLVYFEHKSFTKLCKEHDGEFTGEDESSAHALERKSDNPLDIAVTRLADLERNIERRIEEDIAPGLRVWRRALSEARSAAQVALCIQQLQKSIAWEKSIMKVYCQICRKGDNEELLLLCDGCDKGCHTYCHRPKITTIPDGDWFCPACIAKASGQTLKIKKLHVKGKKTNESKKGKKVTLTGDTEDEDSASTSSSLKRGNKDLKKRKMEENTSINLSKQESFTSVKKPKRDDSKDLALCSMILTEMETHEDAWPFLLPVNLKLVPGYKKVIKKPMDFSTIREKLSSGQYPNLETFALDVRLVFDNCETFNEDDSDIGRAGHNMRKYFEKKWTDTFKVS
Sequence of ATPase family AAA domain-containing protein 2 (Homo sapiens) (Q6PL18 whole entry, the tested form may be a part): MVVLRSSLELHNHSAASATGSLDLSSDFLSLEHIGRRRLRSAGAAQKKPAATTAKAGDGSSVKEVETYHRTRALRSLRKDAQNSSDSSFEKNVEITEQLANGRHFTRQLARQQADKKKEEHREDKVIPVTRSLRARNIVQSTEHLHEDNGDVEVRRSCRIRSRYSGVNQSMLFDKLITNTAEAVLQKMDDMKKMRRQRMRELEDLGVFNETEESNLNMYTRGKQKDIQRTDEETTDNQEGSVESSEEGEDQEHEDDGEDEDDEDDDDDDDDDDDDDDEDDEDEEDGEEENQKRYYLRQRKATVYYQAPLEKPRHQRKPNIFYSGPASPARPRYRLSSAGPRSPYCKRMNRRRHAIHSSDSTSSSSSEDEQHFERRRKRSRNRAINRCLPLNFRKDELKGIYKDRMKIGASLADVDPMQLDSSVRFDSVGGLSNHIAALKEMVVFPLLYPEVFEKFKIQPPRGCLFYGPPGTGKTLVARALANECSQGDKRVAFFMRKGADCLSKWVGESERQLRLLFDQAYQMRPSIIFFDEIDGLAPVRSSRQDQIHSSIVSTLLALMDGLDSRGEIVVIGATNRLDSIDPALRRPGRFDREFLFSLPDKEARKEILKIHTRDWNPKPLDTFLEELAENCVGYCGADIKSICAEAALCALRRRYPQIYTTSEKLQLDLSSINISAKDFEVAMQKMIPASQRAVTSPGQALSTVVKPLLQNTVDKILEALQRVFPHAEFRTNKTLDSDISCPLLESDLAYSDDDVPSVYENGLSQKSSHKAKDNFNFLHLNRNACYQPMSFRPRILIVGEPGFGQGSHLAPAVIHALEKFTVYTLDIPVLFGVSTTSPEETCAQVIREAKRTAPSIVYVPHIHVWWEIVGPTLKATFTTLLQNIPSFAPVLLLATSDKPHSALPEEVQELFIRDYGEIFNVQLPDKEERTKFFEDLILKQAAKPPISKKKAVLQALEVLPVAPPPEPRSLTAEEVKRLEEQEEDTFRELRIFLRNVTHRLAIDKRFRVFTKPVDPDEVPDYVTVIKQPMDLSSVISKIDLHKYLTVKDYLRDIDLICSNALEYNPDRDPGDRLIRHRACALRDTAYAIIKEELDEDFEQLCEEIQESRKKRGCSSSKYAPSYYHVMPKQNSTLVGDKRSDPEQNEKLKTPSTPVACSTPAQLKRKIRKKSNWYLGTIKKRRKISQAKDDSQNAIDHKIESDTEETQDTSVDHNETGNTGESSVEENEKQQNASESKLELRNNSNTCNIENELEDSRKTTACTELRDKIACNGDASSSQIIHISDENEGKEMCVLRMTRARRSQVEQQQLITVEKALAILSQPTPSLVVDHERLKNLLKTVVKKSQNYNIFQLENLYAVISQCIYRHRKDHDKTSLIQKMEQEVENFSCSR

An Activity [1] of 82%, an Activity [2] of 97% and a Cmax [3] of 869 ng/mL were found for `Cc1ccc([C@H](C)Nc2ccc3c(c2)N(C2CC2)[C@H](C)C(=O)N3C)c(C)c1` in this work. It also gave an Activity [4] of 95%, an Activity [5] of 99% and an Activity [6] of 85%. It also gave an AUC(0-inf) [7] of 1690 ng·h/mL, an IC50 [8] of 0.045 µM and a half-life [9] of 2.23 h. For the same compound, the Activity [10] was 47%, the Activity [11] was 100% and the Activity [12] was 57%. For the same compound, the concentration at 24 h [13] was under 0.3 ng/mL, the inhibition [14] was “Active” and the Activity [15] was 88%. The Activity [16] was 100%, the Activity [17] was 0.05% and the Activity [18] was 83%. It also gave an Activity [19] of 96%, an Activity [20] of 94% and an Activity [21] of 0.9%. For the same compound, the AUC(0-t) [22] was 1680 ng·h/mL, the Activity [23] was 73% and the Activity [24] was 100%. For the same compound, the inhibition [25] was “Dose-dependent effect”, the Activity [26] was 0.1% and the Activity [27] was 80%.
